We go through 13 molecules from US8791130B2, “Aminopyrimidine derivatives as LRRK2 modulators” (Genentech, Inc., priority 2011, dated 2014).

The target of the assay is LRRK2 (Homo sapiens (Human), UniProt Q5S007, G2019S). Description: In Vitro LRRK2 LabChip Assay (LRRK2 Ki). Type of assay: biochemical. As to the method: In Vitro LRRK2 LabChip Assay This assay was used to determine a compound's potency in inhibiting activity of LRRK2 by determining, Kiapp, IC50, or percent inhibition values. In a polypropylene plate, LRRK2, fluorescently-labeled peptide substrate, ATP and test compound were incubated together. Using a LabChip 3000 (Caliper Life Sciences), after the reaction the substrate was separated by capillary electrophoresis into two populations: phosphorylated and unphosphorylated. The relative amounts of each were quantitated by fluorescence intensity. LRRK2 Ki was determined according to the equation: […]))). Ki values in Table 4 and elsewhere herein are shown in μM. […] Substrate: 5[…] Non-binding plate: 384 well clear V-bottom polypropylene plates (Greiner cat #781280). ATP: 10 mM ATP (Cell Signaling cat #9804). Triton X-100: Triton X-100. Brij-35: Brij-35 (Pierce cat #20150). […] DMSO: DMSO (Sigma cat #34869-100 ML). […] Compound Plate Preparation: For serial dilutions, 34.6 μl DMSO was added to columns 3-24. For the assay controls, 37.5 μl DMSO was added to columns 1 and 2 of rows A and […]-028831 (Staurosporine) was added to columns 1 and 2, row B. […] A Precision instrument was used to perform 1:3.16 serial dilutions (“PLK_BM_serial_halflog”). ATP Preparation: ATP was diluted to 282.1 μM in Complete Kinase Buffer (final concentration was 130 μM). […] Assay Procedure: To a 50 μl polypropylene plate, 5 μl/well buffer/substrate was added by hand to Blank wells. A Biomek FX was used to start the kinase reaction (“PLK SAR 23 ATP”). […] 5 μl/well kinase/substrate in Assay Plate; The plate was incubated for 2 hours in the dark. Biomek FX was used to stop the kinase reaction (“PLK Stop”), and 10 μl/well Stop solution was added to the Assay Plate.
Sequence of LRRK2 (Q5S007 970-2527 G2019S): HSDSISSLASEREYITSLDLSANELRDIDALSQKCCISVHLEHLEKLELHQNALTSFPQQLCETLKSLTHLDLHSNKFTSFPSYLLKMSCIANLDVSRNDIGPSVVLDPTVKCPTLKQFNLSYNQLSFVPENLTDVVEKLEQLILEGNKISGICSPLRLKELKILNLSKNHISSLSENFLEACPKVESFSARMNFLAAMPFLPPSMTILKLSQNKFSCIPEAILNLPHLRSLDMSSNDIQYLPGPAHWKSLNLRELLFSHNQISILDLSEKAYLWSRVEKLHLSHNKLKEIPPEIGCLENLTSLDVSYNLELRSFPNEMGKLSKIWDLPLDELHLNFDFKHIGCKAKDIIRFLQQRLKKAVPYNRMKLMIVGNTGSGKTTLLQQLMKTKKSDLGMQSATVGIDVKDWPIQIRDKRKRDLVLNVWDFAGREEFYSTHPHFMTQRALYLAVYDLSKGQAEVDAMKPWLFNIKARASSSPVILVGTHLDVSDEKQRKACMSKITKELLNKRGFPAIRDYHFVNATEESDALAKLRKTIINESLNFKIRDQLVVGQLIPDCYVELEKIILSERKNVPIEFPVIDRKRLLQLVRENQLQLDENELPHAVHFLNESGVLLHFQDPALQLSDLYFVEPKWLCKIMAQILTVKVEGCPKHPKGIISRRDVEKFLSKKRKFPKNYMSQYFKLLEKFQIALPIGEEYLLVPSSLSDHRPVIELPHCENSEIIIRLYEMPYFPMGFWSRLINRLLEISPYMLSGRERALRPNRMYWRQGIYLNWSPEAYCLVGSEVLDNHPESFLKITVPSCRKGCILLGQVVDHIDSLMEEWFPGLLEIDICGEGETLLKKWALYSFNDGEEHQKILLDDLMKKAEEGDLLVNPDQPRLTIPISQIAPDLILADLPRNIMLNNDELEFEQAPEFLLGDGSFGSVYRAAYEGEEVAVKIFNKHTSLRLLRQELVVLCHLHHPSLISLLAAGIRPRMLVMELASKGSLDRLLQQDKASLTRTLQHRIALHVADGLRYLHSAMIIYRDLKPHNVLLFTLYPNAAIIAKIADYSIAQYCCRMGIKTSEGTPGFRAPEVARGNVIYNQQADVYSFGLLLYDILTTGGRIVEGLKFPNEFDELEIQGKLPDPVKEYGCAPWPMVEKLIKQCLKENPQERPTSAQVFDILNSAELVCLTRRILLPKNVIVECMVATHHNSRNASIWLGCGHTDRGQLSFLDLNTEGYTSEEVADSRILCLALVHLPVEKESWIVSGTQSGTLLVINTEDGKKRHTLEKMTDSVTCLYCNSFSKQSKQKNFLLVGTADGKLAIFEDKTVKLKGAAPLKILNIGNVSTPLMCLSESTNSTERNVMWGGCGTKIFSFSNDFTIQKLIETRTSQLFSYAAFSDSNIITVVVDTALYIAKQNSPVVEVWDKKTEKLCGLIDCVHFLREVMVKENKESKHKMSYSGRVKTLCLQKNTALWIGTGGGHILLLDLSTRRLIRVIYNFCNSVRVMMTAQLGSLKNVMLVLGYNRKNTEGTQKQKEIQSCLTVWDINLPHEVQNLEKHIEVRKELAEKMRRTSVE
In general, Ki refers to a dissociation constant, usually derived from enzyme kinetics or from competition with a known ligand. `CNc1nc(Nc2cc(OC)c(-c3nc(C)no3)cc2Cl)ncc1Cl` [Compound 36, 5-chloro-N^2-(2-chloro-5-methoxy-4-(3-methyl-1,2,4-oxadiazol-5-yl)phenyl)-N^4-methylpyrimidine-2,4-diamine] showed a Ki of 44 nM. `CNc1nc(Nc2cc(OC)c(-c3nnc(C)o3)cc2Cl)ncc1Cl` [Compound 37, 5-chloro-N^2-(2-chloro-5-methoxy-4-(5-methyl-1,3,4-oxadiazol-2-yl)phenyl)-N^4-methylpyrimidine-2,4-diamine]: the inhibition constant Ki turned out to be 12 nM. Compared with the last molecule, the Ki is about 3.7-fold lower. In the case of `CNc1nc(Nc2ccc(-c3cn(C)nc3C)cc2OC)ncc1C(F)(F)F` [Compound 38, N2-(4-(1,3-dimethyl-1H-pyrazol-4-yl)-2-methoxyphenyl)-N4-methyl-5-(trifluoromethyl) pyrimidine-2,4-diamine], the inhibitory constant (Ki) is 2 nM. `CNc1nc(Nc2ccc(-c3cnn(C)c3C)cc2OC)ncc1C(F)(F)F` [Compound 39, N2-(4-(1,5-dimethyl-1H-pyrazol-4-yl)-2-methoxyphenyl)-N4-methyl-5-(trifluoromethyl) pyrimidine-2,4-diamine] returned an inhibitory constant (Ki) of 3 nM.

Molecule `CNc1nc(Nc2cc(F)c(-c3cnn(C)c3C(=O)N(C)C)cc2OC)ncc1C(F)(F)F` [Compound 41, 4-(2-fluoro-5-methoxy-4-(4-(methylamino)-5-(trifluoromethyl)pyrimidin-2-ylamino)phenyl)-N,N,1-trimethyl-1H-pyrazole-5-carboxamide] showed an inhibition constant (Ki) of 1 nM. On to `CNc1nc(Nc2cc(F)c(-n3nnnc3C)cc2OC)ncc1C(F)(F)F` [Compound 42, N2-(5-fluoro-2-methoxy-4-(5-methyl-1H-tetrazol-1-yl)phenyl)-N4-methyl-5-(trifluoromethyl) pyrimidine-2,4-diamine], for which the affinity, expressed as Ki, was 3 nM.

On to `CNc1nc(Nc2cc(F)c(-c3cnnn3C)cc2OC)ncc1C(F)(F)F` [Compound 43, N2-(5-fluoro-2-methoxy-4-(1-methyl-1H-1,2,3-triazol-5-yl)phenyl)-N4-methyl-5-(trifluoromethyl) pyrimidine-2,4-diamine], for which the Ki amounted to 2 nM. Next, `CNc1nc(Nc2cc(F)c(-c3cnn(C4COC4)c3)cc2OC)ncc1C(F)(F)F` [Compound 44, N2-(5-fluoro-2-methoxy-4-(1-(oxetan-3-yl)-1H-pyrazol-4-yl)phenyl)-N4-methyl-5-(trifluoromethyl) pyrimidine-2,4-diamine]: 10 nM; `CNc1nc(Nc2cc(C)c(-n3nnnc3C)cc2OC)ncc1C(F)(F)F` [Compound 45, N2-(2-methoxy-5-methyl-4-(5-methyl-1H-tetrazol-1-yl)phenyl)-N4-methyl-5-(trifluoromethyl) pyrimidine-2,4-diamine]: 1 nM; `CNc1nc(Nc2cc(C)c(-n3nnnc3COC)cc2OC)ncc1C(F)(F)F` [Compound 46, N2-(2-methoxy-4-(5-(methoxymethyl)-1H-tetrazol-1-yl)-5-methylphenyl)-N4-methyl-5-(trifluuromethyl) pyrimidine-2,4-diamine]: 1 nM.

`CNc1nc(Nc2cc(F)c(-n3nc(C)cc3COC)cc2OC)ncc1C(F)(F)F` [Compound 47, N2-(5-fluoro-2-methoxy-4-(5-(methoxymethyl)-3-methyl-1H-pyrazol-1-yl)phenyl)-N4-methyl-5-(trifluoromethyl) pyrimidine-2,4-diamine] came in with a Ki of 5 nM. With `CNc1nc(Nc2ccc(-n3nc(C)cc3COC)cc2OC)ncc1C(F)(F)F` [Compound 48, N2-(2-methoxy-4-(5-(methoxymethyl)-3-methyl-1H-pyrazol-1-yl)phenyl)-N4-methyl-5-(trifluoromethyl) pyrimidine-2,4-diamine] the figure was 10 nM. Molecule `CNc1nc(Nc2cc(F)c(-n3nnnc3COC)cc2OC)ncc1C(F)(F)F` [Compound 49, N2-(5-fluoro-2-methoxy-4-(5-(methoxymethyl)-1H-tetrazol-1-yl)phenyl)-N4-methyl-5-(trifluoromethyl) pyrimidine-2,4-diamine] gave a Ki of 4 nM.
